From patent publication US7759083B2, “Screening method for a growth inhibitor or promoter of a vascular smooth muscle cell” (Shionogi & Co., Ltd., priority 2004, dated 2010)

Columns and labels:
[1] = test system: TAT reactive rat vascular smooth muscle cell clones; assay: Cell proliferation potency by TAT after GPC3 knockdown with shRNA adenovirus ([methyl 3H] thymidine uptake); assay type: cell-based; settings: adenovirus infection at MOI=10; compared to cells infected GFPi or LacZ used as a control; FIG. 3
Description: Adenovirus carrying GFPi or GPC3i was added to cells on a 10 cm laboratory dish at infectious MOI=10 to infect. The cells were moved on a 24-well plate 1 day after infection and cultured under the absence of blood serum for 24 hours. After that, thymidine taken in cells by the stimulus of TAT was measured.
Each of adenovirus inserted shRNA of Glypican 3 (GPC3) (GPC3i), adenovirus inserted shRNA of Green fluorescent protein (GFP) (GFPi) and adenovirus not inserted shRNA (LacZ) was infected to TAT reactive rat vascular smooth muscle cell clones. Cell proliferation potency by TAT was measured by uptake of [methyl 3H] thymidine according an experiment method.

[2] = test system: vascular smooth muscle cells; assay: Proliferation reaction of vascular smooth muscle cells by human TAT ([methyl 3H] thymidine uptake); assay type: cell-based, rat; settings: serum-free; only some (TAT reactive) vascular smooth muscle cells respond
Description: Vascular smooth muscle cells were plated in a 96-well plate at a density of 2×10^3/well and cultured under the same condition as Example 1. After 3 days, the medium was changed with DMEM containing 0.05% bovine serum albumin. After culturing for one more day, the medium was changed again with new DMEM containing 0.05% bovine serum albumin and TAT was added thereto. After 20 hours from addition of TAT, 0.05 μCi/well [methyl 3H] thymidine was added thereto and the cells were cultured for 2 hours. After washing cells twice with 5% trichloroacetic acid, Super mix (PerkinElmer, Inc.) was added thereto and radioactivity derived from [methyl 3H] thymidine taken in cells was measured by Micro Beta (PerkinEimer, Inc.) (FIG. 1).

Substance	cell proliferation by stimulus of TAT [1]	proliferation of vascular smooth muscle cells [2]
GPC3i: adenovirus inserted shRNA of Glypican 3 (GPC3), sequence SEQ ID: 2 (guide GAACTACACCAATGCCATGTT)	remarkably decreased	
thrombin-antithrombin III complex [TAT]		proliferate some cells of vascular smooth muscle cells at very low concentration
